Source: US8802700B2 (Vertex Pharmaceuticals Incorporated, priority 2010, dated 2014)

Each molecule was assayed against T1, ΔF508-CFTR (Homo sapiens, UniProt P13569, DEL508-508) (assay: Membrane potential optical assay (FRET voltage-sensor dyes, VIPR), identification of potentiator compounds). Settings: Table 3; assay not given.
T1 construct: expressed in transfected cells
T1 sequence (P13569 with tags, fused parts or gaps DEL508-508): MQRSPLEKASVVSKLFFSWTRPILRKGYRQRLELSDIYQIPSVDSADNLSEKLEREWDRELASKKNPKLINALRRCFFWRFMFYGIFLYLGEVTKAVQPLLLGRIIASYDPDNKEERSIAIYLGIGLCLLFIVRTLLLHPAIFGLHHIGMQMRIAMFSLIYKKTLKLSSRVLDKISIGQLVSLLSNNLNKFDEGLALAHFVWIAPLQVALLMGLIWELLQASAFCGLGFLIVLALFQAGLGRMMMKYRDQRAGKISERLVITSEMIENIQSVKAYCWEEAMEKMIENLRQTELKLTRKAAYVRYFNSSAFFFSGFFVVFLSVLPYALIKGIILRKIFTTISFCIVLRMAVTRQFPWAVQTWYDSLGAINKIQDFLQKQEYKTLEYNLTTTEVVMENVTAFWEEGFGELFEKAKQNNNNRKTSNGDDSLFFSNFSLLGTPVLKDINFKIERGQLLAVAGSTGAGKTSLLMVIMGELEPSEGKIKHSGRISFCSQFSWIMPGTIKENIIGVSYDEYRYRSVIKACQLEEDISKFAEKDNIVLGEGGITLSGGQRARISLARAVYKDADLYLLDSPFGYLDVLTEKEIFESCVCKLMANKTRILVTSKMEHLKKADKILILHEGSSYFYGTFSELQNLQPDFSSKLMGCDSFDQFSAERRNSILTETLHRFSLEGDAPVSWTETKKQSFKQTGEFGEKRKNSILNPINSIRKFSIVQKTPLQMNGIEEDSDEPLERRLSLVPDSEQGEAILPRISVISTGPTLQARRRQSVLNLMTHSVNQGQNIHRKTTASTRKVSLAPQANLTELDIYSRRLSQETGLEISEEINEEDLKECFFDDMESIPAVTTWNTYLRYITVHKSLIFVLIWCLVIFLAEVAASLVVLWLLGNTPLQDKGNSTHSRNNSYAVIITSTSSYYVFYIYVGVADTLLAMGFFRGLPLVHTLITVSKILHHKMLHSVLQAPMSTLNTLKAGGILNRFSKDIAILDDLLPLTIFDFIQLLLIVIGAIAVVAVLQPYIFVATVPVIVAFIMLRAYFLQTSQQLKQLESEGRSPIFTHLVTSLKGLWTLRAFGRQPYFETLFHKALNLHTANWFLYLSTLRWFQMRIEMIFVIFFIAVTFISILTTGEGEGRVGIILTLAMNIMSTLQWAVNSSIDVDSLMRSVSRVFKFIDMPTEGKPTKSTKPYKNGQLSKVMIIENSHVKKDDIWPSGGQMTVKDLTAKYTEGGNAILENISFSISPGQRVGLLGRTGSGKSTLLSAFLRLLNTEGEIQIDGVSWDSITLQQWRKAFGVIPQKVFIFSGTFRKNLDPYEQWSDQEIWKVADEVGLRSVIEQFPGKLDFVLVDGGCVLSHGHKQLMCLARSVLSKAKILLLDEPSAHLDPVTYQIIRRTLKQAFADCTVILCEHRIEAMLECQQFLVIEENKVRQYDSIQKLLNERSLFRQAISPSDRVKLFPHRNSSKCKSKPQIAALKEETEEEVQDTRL
Format: cell-based
Method in brief: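 NIH3T3 mouse fibroblasts stably expressing ΔF508-CFTR, cultured 24 h at 27 °C, were loaded with FRET voltage dyes CC2-DMPE and DiSBAC2(3). Double-addition format: first addition of Cl⁻-free (gluconate) medium with or without compound; membrane-potential change read as fluorescence on VIPR II.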
With `O=C(Nc1cc(O)c2ccccc2c1)c1c[nH]c2ccccc2c1=O` [Compound 551, N-(4-hydroxy-2-naphthyl)-4-oxo-1H-quinoline-3-carboxamide] the EC50 was < 10 µM.

Same assay, conditions: Table 3; assay not given; read-out: % Activity (% Efficacy, relative efficacy)
For `CC(C)(C)c1cc(C(C)(C)C)c(NC(=O)c2c[nH]c3cc(C#N)ccc3c2=O)cc1O` [Compound 548, 7-cyano-N-(5-hydroxy-2,4-ditert-butyl-phenyl)-4-oxo-1H-quinoline-3-carboxamide], the Emax was 25 to 100%. `O=C(Nc1cccc(-c2cccs2)c1)c1c[nH]c2ccccc2c1=O` [Compound 549, 4-oxo-N-[3-(2-thienyl)phenyl]-1H-quinoline-3-carboxamide] gave an Emax of 25 to 100%. Molecule `COC(=O)[C@@H]1C[C@@H](OC(C)(C)C)CN1c1ccc(NC(=O)c2c[nH]c3ccccc3c2=O)c(C(F)(F)F)c1` [Compound 550, (2S,4R)-methyl 4-tert-butoxy-1-(4-(4-oxo-1,4-dihydroquinoline-3-carboxamido)-3-(trifluoromethyl)phenyl)pyrrolidine-2-carboxylate] has an Emax of 25 to 100%. `O=C(Nc1cc(O)c2ccccc2c1)c1c[nH]c2ccccc2c1=O` [Compound 551, N-(4-hydroxy-2-naphthyl)-4-oxo-1H-quinoline-3-carboxamide] was tested, and the Emax was 25 to 100%. Molecule `CC(C)(C)c1cc(C(C)(C)C)c(NC(=O)c2c[nH]c3ccc(Br)cc3c2=O)cc1O` [Compound 553, 6-bromo-N-(5-hydroxy-2,4-ditert-butyl-phenyl)-4-oxo-1H-quinoline-3-carboxamide] has an Emax of 25 to 100%. For `CC(C)(C)c1c[nH]c2cc(NC(=O)c3c[nH]c4ccc(F)cc4c3=O)ccc12` [Compound 554, 6-fluoro-4-oxo-N-(3-tert-butyl-1H-indol-6-yl)-1H-quinoline-3-carboxamide], the Emax was 25 to 100%. `CC1CCN(c2ccc(NC(=O)c3c[nH]c4ccccc4c3=O)c(C(F)(F)F)c2)C1` (centres unmarked) [Compound 555, N-[4-(3-methylpyrrolidin-1-yl)-2-(trifluoromethyl)phenyl]-4-oxo-1H-quinoline-3-carboxamide] gave an Emax of 25 to 100%. With `CC(C)(C)C(=O)Nc1ccc(NC(=O)c2c[nH]c3ccccc3c2=O)c(C(F)(F)F)c1` [Compound 556, N-[4-(2,2-dimethylpropanoylamino)-2-(trifluoromethyl)phenyl]-4-oxo-1H-quinoline-3-carboxamide] the Emax was 25 to 100%. `CC(C)c1ccc(NC(=O)c2c[nH]c3ccc(F)cc3c2=O)c(C(F)(F)F)c1` [Compound 557, 6-fluoro-N-[4-isopropyl-2-(trifluoromethyl)phenyl]-4-oxo-1H-quinoline-3-carboxamide] showed an Emax of 25 to 100%. With `CC(C)(C)c1cc2cc[nH]c2cc1NC(=O)c1c[nH]c2cc(C#N)ccc2c1=O` [Compound 558, 7-cyano-4-oxo-N-(5-tert-butyl-1H-indol-6-yl)-1H-quinoline-3-carboxamide] the Emax was 25 to 100%. With `CC(C)(C)c1cc2cc[nH]c2cc1NC(=O)c1c[nH]c2c(C(F)(F)F)cccc2c1=O` [Compound 559, 4-oxo-N-(5-tert-butyl-1H-indol-6-yl)-8-(trifluoromethyl)-1H-quinoline-3-carboxamide] the Emax was < 25%. `COc1cc(NC(=O)c2c[nH]c3ccccc3c2=O)ccc1-n1c(C)ccc1C` [Compound 560, N-[4-(2,5-dimethylpyrrol-1-yl)-3-methoxy-phenyl]-4-oxo-1H-quinoline-3-carboxamide] showed an Emax of 25 to 100%. Molecule `CC(C)(C)c1cc(F)c(NC(=O)c2c[nH]c3ccc(Cl)cc3c2=O)cc1O` [Compound 561, 6-chloro-N-(2-fluoro-5-hydroxy-4-tert-butyl-phenyl)-4-oxo-1H-quinoline-3-carboxamide] has an Emax of 25 to 100%. `O=C(Nc1ccc(N2CCCC2)cc1C(F)(F)F)c1c[nH]c2ccc(F)cc2c1=O` [Compound 562, 6-fluoro-4-oxo-N-[4-pyrrolidin-1-yl-2-(trifluoromethyl)phenyl]-1H-quinoline-3-carboxamide] was tested, and the Emax was 25 to 100%. For `O=C(Nc1cc(O)cc(C(F)(F)F)c1)c1c[nH]c2ccccc2c1=O` [Compound 563, N-[3-hydroxy-5-(trifluoromethyl)phenyl]-4-oxo-1H-quinoline-3-carboxamide], the Emax was 25 to 100%. For `O=C(Nc1ccc(C2CCCCC2)c(O)c1)c1c[nH]c2ccccc2c1=O` [Compound 564, N-(4-cyclohexyl-3-hydroxy-phenyl)-4-oxo-1H-quinoline-3-carboxamide], the Emax was 25 to 100%.
